Measurements from patent US12180187B2, “1-phenyl-5-azinylpyrazolyl-3-oxyalkyl acids and their use for controlling unwanted plant growth” (BAYER AKTIENGESELLSCHAFT, priority 2019, dated 2024).

What was measured:
[1] = tested on: MATIN; assay: Pre-emergence action against MATIN, 1280 g/ha; format: in vivo, Tripleurospermum inodorum (Matricaria inodora); conditions: scored visually after about 3 weeks vs untreated controls (100% = plants have died)
Excerpt: (§1) 1. Pre-Emergence Herbicidal Effect and Crop Plant Compatibility a) Seeds of mono- and dicotyledonous weed plants are placed in plastic pots in sandy loam soil (doubly sown with one species each of mono- or dicotyledonous weed plants per pot) and covered with soil. The compounds of the invention, formulated in the form of wettable powders (WP) or as emulsion concentrates (EC), are then applied onto the surface of the covering soil as aqueous suspension or emulsion with addition of 0.5% additive at a water application rate equivalent to 600 litres per hectare. After the treatment, the pots are placed in a greenhouse and kept under good growth conditions for the trial plants. After about 3 weeks, the effect of the preparations is scored visually in comparison with untreated controls as percentages. For example, 100% activity=the plants have died, 0% activity=like control plants. 1. Pre-Emergence Effectiveness Tables 1 to 12 below show the effects of selected compounds of the general formula (I) according to Tables 1 and 2 on various harmful plants and at an application rate corresponding to 1280 g/ha, which were obtained by the experimental procedure mentioned above.

[2] = tested on: ALOMY; assay: Pre-emergence action against ALOMY, 1280 g/ha; format: in vivo, Alopecurus myosuroides; conditions: visual scoring after about 3 weeks vs untreated controls, 100% = plants have died, 0% = like control plants
Excerpt: as §1

[3] = tested on: VERPE; assay: Pre-emergence action against VERPE, 1280 g/ha; format: in vivo, Veronica persica; conditions: scored visually after about 3 weeks vs untreated controls (100% = plants have died)
Excerpt: as §1

[4] = tested on: LOLRI; assay: Pre-emergence action against LOLRI, 1280 g/ha; format: in vivo, Lolium rigidum; conditions: visual scoring after about 3 weeks vs untreated controls, 100% = plants have died, 0% = like control plants
Excerpt: as §1

[5] = tested on: STEME; assay: Pre-emergence action against STEME, 1280 g/ha; format: in vivo, Stellaria media; conditions: scored visually after about 3 weeks vs untreated controls (100% = plants have died)
Excerpt: as §1

[6] = tested on: POAAN; assay: Pre-emergence action against POAAN, 1280 g/ha; format: in vivo, Poa annua; conditions: visual scoring after about 3 weeks vs untreated controls, 100% = plants have died, 0% = like control plants
Excerpt: as §1

[7] = tested on: DIGSA; assay: Pre-emergence action against DIGSA, 1280 g/ha; format: in vivo, Digitaria sanguinalis; conditions: visual scoring after about 3 weeks vs untreated controls, 100% = plants have died, 0% = like control plants
Excerpt: as §1

[8] = tested on: SETVI; assay: Pre-emergence action against SETVI, 1280 g/ha; format: in vivo, Setaria viridis; conditions: visual scoring after about 3 weeks vs untreated controls, 100% = plants have died, 0% = like control plants
Excerpt: as §1

[9] = tested on: AMARE; assay: Pre-emergence action against AMARE, 1280 g/ha; format: in vivo, Amaranthus retroflexus; conditions: scored visually after about 3 weeks vs untreated controls (100% = plants have died)
Excerpt: as §1

[10] = tested on: AMARE; assay: Post-emergence action against AMARE, 1.28 kg/ha; format: in vivo, Amaranthus retroflexus; conditions: dosage 1280 g/ha, visual rating about 3 weeks after treatment vs untreated controls (100% = plants died)
Procedure: (§2) • a) Seeds of mono- and dicotyledonous weed plants are placed in plastic pots in sandy loam soil (twin sowing with one species each of mono- or dicotyledonous weed plants per pot), covered with soil and cultivated in a greenhouse under controlled growth conditions. 2 to 3 weeks after sowing, the test plants are treated at the one-leaf stage. The compounds of the invention, formulated in the form of wettable powders (WP) or as emulsion concentrates (EC), are applied to the green parts of the plants as aqueous suspension or emulsion with addition of 0.5% additive at a water application rate equivalent to 600 litres per hectare. After the test plants have been kept in the greenhouse under optimum growth conditions for about 3 weeks, the activity of the preparations is rated visually in comparison to untreated controls. For example, 100% activity=the plants have died, 0% activity=like control plants. As shown by the results, compounds of the general formula (I) of the invention, in post-emergence treatment, have very good herbicidal efficacy (90% to 100% herbicidal action) against harmful plants such as Abutilon theophrasti, Digitaria sanguinalis, Echinochloa crus-galli, Matricaria inodora, Poa annua, at an application rate of 1.28 kg of active substance per hectare.

[11] = tested on: VERPE; assay: Post-emergence action against VERPE, 1.28 kg/ha; format: in vivo, Veronica persica; conditions: dosage 1280 g/ha, visual rating about 3 weeks after treatment vs untreated controls (100% = plants died)
Procedure: as §2

[12] = tested on: ALOMY; assay: Post-emergence action against ALOMY, 1.28 kg/ha; format: in vivo, Alopecurus myosuroides; conditions: dosage 1280 g/ha, visual rating about 3 weeks after treatment vs untreated controls
Procedure: as §2

[13] = tested on: MATIN; assay: Post-emergence action against MATIN, 1.28 kg/ha; format: in vivo, Tripleurospermum inodorum (Matricaria inodora); conditions: dosage 1280 g/ha, visual rating about 3 weeks after treatment vs untreated controls (100% = plants died)
Procedure: as §2

[14] = tested on: ECHCG; assay: Pre-emergence action against ECHCG, 1280 g/ha; format: in vivo, Echinochloa crus-galli; conditions: visual scoring after about 3 weeks vs untreated controls, 100% = plants have died, 0% = like control plants
Excerpt: as §1

[15] = tested on: POAAN; assay: Post-emergence action against POAAN, 1.28 kg/ha; format: in vivo, Poa annua; conditions: dosage 1280 g/ha, visual rating about 3 weeks after treatment vs untreated controls
Procedure: as §2

[16] = tested on: DIGSA; assay: Post-emergence action against DIGSA, 1.28 kg/ha; format: in vivo, Digitaria sanguinalis; conditions: dosage 1280 g/ha, visual rating about 3 weeks after treatment vs untreated controls
Procedure: as §2

| Compound | Pre-emergence action against MATIN [1] [%] | Pre-emergence action against ALOMY [2] [%] | Pre-emergence action against VERPE [3] [%] | Pre-emergence action against STEME [5] [%] | Pre-emergence action against POAAN [6] [%] | Pre-emergence action against DIGSA [7] [%] | Pre-emergence action against SETVI [8] [%] | Pre-emergence action against AMARE [9] [%] | Post-emergence action against AMARE [10] [%] | Post-emergence action against VERPE [11] [%] | Post-emergence action against ALOMY [12] [%] | Post-emergence action against MATIN [13] [%] | Post-emergence action against POAAN [15] [%] | other results |
| --- | --- | --- | --- | --- | --- | --- | --- | --- | --- | --- | --- | --- | --- | --- |
| COC(=O)[C@@H](C)Oc1nn(-c2ccccc2F)c(-c2cnccn2)c1Br [Example I-001] | 90 | 90 | 100 | 100 | 100 | 90 | 90 | 100 | 90 |  |  |  |  | Pre-emergence action against LOLRI [4]: 90% |
| O=C(COc1nn(-c2ccccc2F)c(-c2ccc(F)nc2)c1Br)N1CCSC1=O [Example X-011] | 90 |  | 100 |  | 100 | 100 | 100 | 100 | 90 | 90 | 90 | 100 | 100 | Pre-emergence action against ECHCG [14]: 100% |
| O=C(O)C1CCCN(C(=O)COc2nn(-c3ccccc3F)c(-c3cncc(F)c3)c2Br)C1 (stereo not drawn) [Example X-033] | 90 | 90 | 90 | 90 | 100 | 90 | 90 | 90 | 100 | 100 | 100 | 100 | 100 | Post-emergence action against DIGSA [16]: 90% |
| N#CCCNC(=O)COc1nn(-c2ccccc2F)c(-c2ccc(F)cn2)c1Br [II-005] |  |  |  |  |  |  |  | 90 |  |  |  |  |  |  |
| COC(=O)CNC(=O)COc1nn(-c2ccccc2F)c(-c2ccc(F)cn2)c1Br [II-013] | 90 | 90 | 100 | 100 | 100 | 100 | 100 | 90 |  | 90 | 90 | 90 | 90 | Pre-emergence action against LOLRI [4]: 100%; Pre-emergence action against ECHCG [14]: 90% |
| O=C(COc1nn(-c2ccc(F)cc2F)c(-c2ccc(F)cn2)c1Br)NO [II-018] |  |  |  |  |  |  |  |  | 100 |  |  | 90 |  |  |
| CCOC(=O)COc1nn(-c2ccccc2F)c(-c2ccnnc2)c1C#N [IV-003, Ethyl {[4-cyano-1-(2-fluorophenyl)-5-(pyridazin-4-yl)-1H-pyrazol-3-yl]oxy}acetate] |  |  |  |  |  |  |  |  | 90 |  | 100 |  |  | pest or weed control at 1280 g/ha ([1]; Tripleurospermum inodorum, 504 h): 90%; pest or weed control at 1280 g/ha ([11]; Veronica persica, 504 h): 90%; pest or weed control at 1280 g/ha ([3]; Veronica persica, 504 h): 100%; pest or weed control at 1280 g/ha ([5]; Stellaria media, 504 h): 100%; pest or weed control at 1280 g/ha ([6]; Poa annua, 504 h): 90%; pest or weed control at 1280 g/ha ([8]; Setaria viridis, 504 h): 100%; pest or weed control at 1280 g/ha ([9]; Amaranthus retroflexus, 504 h): 90% |
| COC(=O)[C@@H](C)Oc1nn(-c2ccccc2F)c(-c2cncnc2)c1Cl [VI-017] | 100 | 90 | 100 | 90 | 90 |  |  | 100 | 90 |  |  |  |  |  |
